Test results from US20060068389A1, “Methods and compositions for inhibiting hiv replication” (priority 2002, published 2006).

Assays:
Vpr [1] = details: typical of multiple assays, FIG. 1
Description: Accordingly to test if additional anti-glucocorticoids might mediate similar effects, screening assays were developed based on the above Vpr activities which include inhibition of antiviral activity, rescue of the inhibition of cell proliferation and viral transactivation studies. Mifepristone analogues were chosen by SAR analysis.

Rip-1 = assay: Vpr mediated stimulation of Rip-1 nuclear translocation; format: cell-based, human
Description: (§1) The Vpr gene of HIV-1 encodes a 15 KD virion associated protein which functions as a regulator of cellular processes linked to the HIV life cycle. We observed the interaction of a 41-kD cytosolic viral protein R interacting protein-1 (rip-1), associated with Vpr in vitro, and co-localizes in cells ex vivo. […] This protein co-elutes with Vpr in an immunoaffmity system and can be cross-linked with Vpr to form a 58 Kd complex. […] The Vpr mediated stimulation of Rip-1 nuclear translocation, and the viral complementation accomplished with exogenous Vpr protein was mimicked by GR II stimulating steroids. These effects were inhibited by mifepristone, a well-characterized GR II pathway inhibitor. In addition, the levels of LTR-CAT induction attained by Vpr protein were similarly obtained by GR activating steroids. Vpr protein induced CAT activity in cells transfected with a plasmid that contains CAT linked to HIV-1 LTR, pLTR-CAT, and co-localized with Dexamethasone as to the site of its induction of CAT activity from a panel of HIV-1 LTR CAT deletion mutants. In addition, Vpr stimulated the formation of the DNA binding complex which associates with GRE sequences during the glucocorticoid mediated transactivation process.

Vpr [2] = assay: Viral complementation accomplished with exogenous Vpr protein; format: cell-based, HIV-1
Description: as §1

Row | Compound | activity in the above assays (Vpr-based screening assays) (Vpr [1]) | inhibition of Vpr mediated stimulation of Rip-1 nuclear translocation (Rip-1) | inhibition of viral complementation accomplished with exogenous Vpr protein (Vpr [2])
1 | CC(=O)C1CCC2C3C=CC4=CC(=O)CCC4(C)C3CCC12C (stereo not shown) [Compound D1, Pregna4,6,-diene-3,20-dione] | some activity | – | –
2 | C#C[C@]1(O)CCC2C3CCC4=C(CCC(=O)C4)C3CCC21C (stereo partly drawn) [Compound D2, 17-α-ethynyl-17-β-hydroxyestr-5(10)-En-3-one] | some activity | – | –
3 | CC#C[C@]1(O)CC[C@H]2[C@@H]3CCC4=CC(=O)CCC4=C3[C@@H](c3ccc(N(C)C)cc3)C[C@@]21C [mifepristone] | – | inhibited | inhibited
